{"source": "patent US20080004266A1", "about": "“Method for treating proliferative disorders associated with protooncogene products” (priority 2006, published 2008)", "tested_on": "human acute myelogenous leukemia tumor cell line Mv 4-11", "assay": "Mv 4-11 (FLT3-ITD) nude mouse xenograft model", "format": "in vivo, human (xenograft in nude mouse)", "conditions": "for % T/C value: nude mice, 3 doses", "procedure": "The human acute myelogenous leukemia (AML) cell line, Mv 4-11 (ATCC #CRL-9591), was obtained from the American Type Culture Collection (ATCC; Manassas, Va., USA). Growth of this tumor cell line is dependent upon the expression of an activated form of the FLT3 tyrosine kinase receptor carrying an internal tandem duplication (ITD) mutation, which is the most common molecular defect associated with AML (K. W. Yee et al., Blood 100:2941-2949, 2002). The cells were cultured in growth media prepared with Iscove's Modified Dulbecco's Media, 10% fetal bovine serum (FBS), 1% 100× Penicillin-Streptomycin, 1% 100× sodium pyruvate and 1% 100×MEM non-essential amino acids. FBS was obtained from ATCC and all other reagents were obtained from Invitrogen Corp. (Carlsbad, Calif., USA). Cells that had been cryopreserved in liquid nitrogen were rapidly thawed at 37° C. and transferred to a tissue culture flask containing growth media and then incubated at 37° C. in a 5% CO2 incubator. To expand the cell line, cultures were passaged 1:2 to a density of 5×10 (6) cells/ml every three days by adding an equal volume of fresh growth media. When the flasks reached a density of approximately 10×10 (6) cells/ml, the above passaging process was repeated until sufficient cells had been obtained for implantation into mice.\nSeven to eight week old, female Crl:CD-1-nuBR (nude) mice were obtained from Charles River Laboratories (Wilmington, Mass., USA). Animals were housed 4-5/cage in micro-isolators, with a 12 hr/12 hr light/dark cycle, acclimated for at least 1 week prior to use and fed normal laboratory chow ad libitum. Studies were conducted on animals between 8 and 10 weeks of age at implantation. To implant Mv 4-11 tumor cells into nude mice, cell cultures were centrifuged to pellet the cells, the supernatant was aspirated, the cell pellet was resuspended in 10 ml of growth media and the cell number determined using a hemocytometer. […]\nTumors were then permitted to develop in vivo until the majority reached 100-200 mm^3 in tumor volume, which typically required 1-2 weeks following implantation. […] Tumor volumes (V) were calculated by caliper measurement of the width (W), length (L) and thickness (T) of tumors using the following formula: V=0.5236×(L×W×T). Animals were randomized into treatment groups so that the median tumor volumes of each group were similar at the start of dosing. % T/C values, as a measure of efficacy, were determined as follows: • (i) If ΔT>0: % T/C=(ΔT/ΔC)×100 • (ii) If ΔT<0: % T/C=(ΔT/T0)×100 • (iii) ΔT=Change in median tumor volume between start of dosing and the end of study. • (iv) ΔC=Change in median tumor volume between start of dosing and the end of study. • (v) T0=Median tumor volume at start of dosing. […]", "key": {"[1]": {"conditions": "125 mg/kg i.v. 1 time per week, day 41"}}}
{"smiles": "CC(C)c1cc(-c2nnc(O)n2-c2ccc3c(ccn3C)c2)c(O)cc1O", "note": "[Compound 226, 3-(2,4-di-hydroxy-5-isopropyl-phenyl)-4-(1-methyl-indol-5-yl)-5-hydroxy-[1,2,4] triazole]", "values": [{"measurement": "average bodyweight loss relative to the start of the study", "setting": "[1]", "value": "−1.4% (+/−1.6 SEM)"}, {"measurement": "animals with no apparent tumors", "setting": "125 mg/kg treatment group, by day 41 (end of the study)", "value": "2 of 8"}, {"measurement": "% T/C value", "setting": "50 mg/kg i.v. 1 time per week, day 41", "value": "−63.8", "unit": "%"}, {"measurement": "% T/C value", "setting": "[1]", "value": "−93.0", "unit": "%"}]}
